This note sets out measurements from patent publication US9394284B2, “Compounds act at multiple prostaglandin receptors giving a general anti-inflammatory response” (Allergan, Inc., priority 2010, dated 2016).

Format in all cases: cell-based
Test [1] deals with T1, human prostanoid EP1 receptor (Homo sapiens, UniProt P34995).
T1 construct: expressed in transfected cells
T1 sequence (P34995 1-402): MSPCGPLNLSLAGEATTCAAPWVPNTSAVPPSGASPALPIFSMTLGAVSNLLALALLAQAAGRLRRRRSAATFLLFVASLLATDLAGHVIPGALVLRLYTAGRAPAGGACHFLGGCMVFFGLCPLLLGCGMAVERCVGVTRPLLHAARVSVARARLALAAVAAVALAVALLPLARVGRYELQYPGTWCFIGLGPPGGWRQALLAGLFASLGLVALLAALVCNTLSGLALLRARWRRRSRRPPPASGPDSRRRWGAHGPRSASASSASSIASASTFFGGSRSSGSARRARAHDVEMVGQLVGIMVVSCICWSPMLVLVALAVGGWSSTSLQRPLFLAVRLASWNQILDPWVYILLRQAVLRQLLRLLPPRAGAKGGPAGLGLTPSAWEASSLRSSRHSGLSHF
Briefly: FLIPR Ca2+ signaling antagonist assay, EP1 receptor stable cell line. To be noted: HEK-293 EBNA stable cell line; standard agonist PGE2; NA = inactive (no antagonism or Kb 10,000 nM); PAg, Ag not defined. Summed up:
(§1)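 HEK-293 EBNA cells stably expressed the receptor: DP1 with chimeric Gqs, EP3 with Gqi, and EP1 and TP without exogenous G protein. Fluo-4AM-loaded cells were preincubated 4.5 min at 37 °C with antagonist (0.1–30 μM; TP 0.067–1 μM) before agonist serial dilutions. Peak FLIPR fluorescence was normalised to the 10^−6 M agonist control.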

Test [2] has as its target T2, human prostanoid FP receptor (Homo sapiens, UniProt P43088).
T2 construct: expressed in transfected cells
Briefly: FLIPR Ca2+ signaling antagonist assay, FP receptor stable cell line. To be noted: HEK-293 EBNA stable cell line; standard agonist 17-phenyl-PGF2α; NA = inactive (no antagonism or Kb 10,000 nM); PAg, Ag not defined. Put shortly:
(§2)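 Peak Fluo-4 fluorescence (ex 470–495, em 515–575 nm) was read for 3.5 min on FLIPR after agonist injection and expressed relative to 10^−6 M standard agonist. Cells were HEK-293 EBNA transfectants. Test compound was added 4.5 min beforehand at 0.1–30 μM, or 0.067–1 μM for TP.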

Test [3] addresses T3, human prostanoid EP2 receptor (Homo sapiens, UniProt P43116).
T3 construct: expressed in transfected cells
Briefly: FLIPR Ca2+ signaling antagonist assay, EP2 receptor stable cell line. To be noted: HEK-293 EBNA stable cell line; standard agonist PGE2; NA = inactive (no antagonism or Kb 10,000 nM); PAg, Ag not defined. The protocol: The above compounds were tested for PG antagonist activity as follows using human recombinant prostanoid receptor (DP1, EP1-4, FP, IP and TP) stable cell lines:
In order to measure the response of Gs and Gi coupled prostanoid receptors as a Ca^2+ signal, chimeric G protein cDNAs were used. Stable cell lines over-expressing human prostanoid DP1, EP1-4, FP, IP, and TP receptors were established as follows:
Briefly, human prostanoid DP1, EP2, and EP4 receptor cDNAs were co-transfected with chimeric Gqs cDNA containing a haemagglutanin (HA) epitope; human prostanoid EP3 receptors were co-transfected with chimeric Gqi-HA; human EP1, FP, IP, and TP receptor cDNAs were expressed with no exogenous G-proteins. Gqs and Gqi chimeric cDNAs (Molecular Devices, Sunnyvale, Calif., U.S.A.), as well as cDNAs of prostanoid receptors, were cloned into a pCEP4 vector with a hygromycin B selection marker. Transfection into HEK-293 EBNA (Epstein-Barr virus nuclear antigen) cells was achieved by the FuGENE 6 transfection Reagent (Roche Applied Science, Indianapolis, Ind., USA). Stable transfectants were selected according to hygromycin resistance. Because Gqs and Gqi contained an HA epitope, G-protein expression was detected by Western blotting analysis using anti-mouse HA monoclonal antibody and horseradish peroxidase (HRP)-conjugated secondary antibody, while functional expression of prostanoid receptors was detected by FLIPR screening (Matias et al., 2004). These stable cell lines were validated using previously published antagonists at 10 μM against serial dilutions of standard agonists by FLIPR functional assays for Ca^2+ Signaling (as described below).
Ca^2+ signaling studies were performed using a FLIPR TETRA system (Molecular Devices, Sunnyvale, Calif., USA) in the 384-format. This is a high-throughput instrument for cell-based assays to monitor Ca^2+ signaling associated with GPCRs and ion channels. Cells were seeded at a density of 5×10^4 cells/well in BioCoat poly-D-lysine coated, black wall, clear bottom 384-well plates (BD Biosciences, Franklin lakes, NJ, USA) and allowed to attach overnight in an incubator at 37° C. The cells were then washed twice with HBSS-HEPES buffer (Hanks' balanced salt solution without bicarbonate and phenol red, 20 mM HEPES, pH 7.4) using an ELx405 Select CW Microplate Washer (BioTek, Winooski, Vt., USA). After 60 min of dye-loading in the dark using the Ca^2+-sensitive dye Fluo-4AM (Invitrogen, Carlsbad, Calif., USA), at a final concentration of 2×10^−6M, the plates were washed 4 times with HBSS-HEPES buffer to remove excess dye and leaving 50 μl of buffer in each well. The plates were then placed in the FLIPR TETRA instrument and allowed to equilibrate at 37° C. AGN-211377 was added in a 25 μl volume to each well to give final concentrations of 0.1 μM, 0.3 μM, 1 μM, 3 μM, 10 μM, and 30 μM; or 0.067 μM, 0.1 μM, 0.2 μM, 0.3 μM, 0.67 μM, and 1 μM for cells over-expressing TP receptors. After 4.5 minutes, a 7-point serial dilution of the standard agonist for the corresponding receptor, in a 25 μl volume was injected at the final concentrations from 10^−11M to 10^−5M in 10-fold serial dilution increments for cells expressing human recombinant DP1, EP1, EP2, EP3, EP4, FP, and IP receptors. The dose range for the standard agonist for human recombinant TP receptors was from 10^−12 M to 10^−6 M. HBSS-HEPES buffer was used as the negative control for the standard agonists. Cells were excited with LED (light emitting diode) excitation at 470-495 nm and emission was measured through an emission filter at 515-575 nm. Assay plates were read for 3.5 minutes using the FLIPR^TETRA. The peak increase in fluorescence intensity was recorded for each well. On each plate, negative controls, dose response of positive controls, and co-treatments of antagonist-agonist for each dose were in triplicates.
Standard agonists were as follows: DP=BW 245C, EP1-EP4=PGE2, FP=17-phenyl-PGF2α, IP=Cicaprost, and TP=U-46619. […]

Test [4] has as its target T4, human prostanoid EP4 receptor (Homo sapiens, UniProt P35408).
T4 construct: expressed in transfected cells
Briefly: FLIPR Ca2+ signaling antagonist assay, EP4 receptor stable cell line. To be noted: HEK-293 EBNA stable cell line; standard agonist PGE2; NA = inactive (no antagonism or Kb 10,000 nM); PAg, Ag not defined. Put shortly:
as §2

Test [5] concerns the target T5, human prostanoid IP receptor (Homo sapiens, UniProt P43119).
T5 construct: expressed in transfected cells
The test is described as follows: FLIPR Ca2+ signaling antagonist assay, IP receptor stable cell line. The note with it: HEK-293 EBNA stable cell line; standard agonist Cicaprost; NA = inactive (no antagonism or Kb 10,000 nM); PAg, Ag not defined. Summed up:
as §2

Test [6] addresses T6, human prostanoid DP1 receptor (Homo sapiens, UniProt Q13258).
T6 construct: expressed in transfected cells
T6 sequence (Q13258 1-359): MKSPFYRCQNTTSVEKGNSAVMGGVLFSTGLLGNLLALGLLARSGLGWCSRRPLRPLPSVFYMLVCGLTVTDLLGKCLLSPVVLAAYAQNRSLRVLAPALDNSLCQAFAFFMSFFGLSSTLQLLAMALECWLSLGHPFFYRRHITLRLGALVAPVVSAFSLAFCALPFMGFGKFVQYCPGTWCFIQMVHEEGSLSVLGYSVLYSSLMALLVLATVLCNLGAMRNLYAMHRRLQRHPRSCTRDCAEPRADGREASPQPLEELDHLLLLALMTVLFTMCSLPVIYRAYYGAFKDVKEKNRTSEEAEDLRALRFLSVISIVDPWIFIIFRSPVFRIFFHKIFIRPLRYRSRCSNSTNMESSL
Briefly: FLIPR Ca2+ signaling antagonist assay, DP1 receptor stable cell line. The note with it: HEK-293 EBNA stable cell line; standard agonist BW 245C; NA = inactive (no antagonism or Kb 10,000 nM); PAg, Ag not defined. Summed up:
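Functional antagonism measured by Ca2+ flux at 37 °C. Agonist ranges were 10^−11 to 10^−5 M, or 10^−12 to 10^−6 M for TP with U-46619; PGE2 for EP1/EP3, BW 245C for DP1. Compound spanned 0.1–30 μM except TP, 0.067–1 μM.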

For test [7], the target named is T7, human prostanoid TP receptor (Homo sapiens, UniProt P21731).
T7 construct: expressed in transfected cells
T7 sequence (P21731 1-343): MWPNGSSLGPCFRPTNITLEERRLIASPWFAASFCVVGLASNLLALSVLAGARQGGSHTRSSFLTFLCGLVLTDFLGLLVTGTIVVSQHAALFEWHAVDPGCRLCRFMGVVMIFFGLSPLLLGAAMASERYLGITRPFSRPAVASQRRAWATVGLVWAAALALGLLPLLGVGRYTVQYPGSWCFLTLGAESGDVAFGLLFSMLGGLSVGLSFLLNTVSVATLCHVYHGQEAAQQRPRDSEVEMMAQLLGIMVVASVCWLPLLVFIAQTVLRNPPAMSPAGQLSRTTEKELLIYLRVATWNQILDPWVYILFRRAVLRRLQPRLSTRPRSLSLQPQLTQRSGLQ
Briefly: FLIPR Ca2+ signaling antagonist assay, TP receptor stable cell line. The note with it: HEK-293 EBNA stable cell line; standard agonist U-46619; NA = inactive (no antagonism or Kb 10,000 nM); PAg, Ag not defined. Put shortly:
as §1

T5 sequence (P43119 whole entry): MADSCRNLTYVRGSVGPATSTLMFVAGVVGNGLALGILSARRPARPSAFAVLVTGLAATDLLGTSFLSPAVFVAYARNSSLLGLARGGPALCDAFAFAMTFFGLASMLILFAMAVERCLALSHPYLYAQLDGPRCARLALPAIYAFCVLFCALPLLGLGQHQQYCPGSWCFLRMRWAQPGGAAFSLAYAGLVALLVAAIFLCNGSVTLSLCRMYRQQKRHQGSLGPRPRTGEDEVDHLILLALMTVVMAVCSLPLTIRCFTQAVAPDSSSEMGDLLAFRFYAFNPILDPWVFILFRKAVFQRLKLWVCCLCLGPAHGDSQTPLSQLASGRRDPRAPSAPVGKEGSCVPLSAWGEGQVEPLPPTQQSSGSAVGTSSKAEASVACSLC
T2 sequence (P43088 whole entry): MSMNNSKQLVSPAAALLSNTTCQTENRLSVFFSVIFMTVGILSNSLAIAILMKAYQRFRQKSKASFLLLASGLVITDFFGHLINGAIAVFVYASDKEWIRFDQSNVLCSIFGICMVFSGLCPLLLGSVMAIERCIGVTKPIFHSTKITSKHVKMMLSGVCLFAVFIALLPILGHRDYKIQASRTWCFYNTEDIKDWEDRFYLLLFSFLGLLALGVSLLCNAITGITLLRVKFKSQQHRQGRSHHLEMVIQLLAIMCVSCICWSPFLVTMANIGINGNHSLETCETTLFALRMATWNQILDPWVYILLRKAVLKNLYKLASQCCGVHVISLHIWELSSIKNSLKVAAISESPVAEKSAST
T4 sequence (P35408 whole entry): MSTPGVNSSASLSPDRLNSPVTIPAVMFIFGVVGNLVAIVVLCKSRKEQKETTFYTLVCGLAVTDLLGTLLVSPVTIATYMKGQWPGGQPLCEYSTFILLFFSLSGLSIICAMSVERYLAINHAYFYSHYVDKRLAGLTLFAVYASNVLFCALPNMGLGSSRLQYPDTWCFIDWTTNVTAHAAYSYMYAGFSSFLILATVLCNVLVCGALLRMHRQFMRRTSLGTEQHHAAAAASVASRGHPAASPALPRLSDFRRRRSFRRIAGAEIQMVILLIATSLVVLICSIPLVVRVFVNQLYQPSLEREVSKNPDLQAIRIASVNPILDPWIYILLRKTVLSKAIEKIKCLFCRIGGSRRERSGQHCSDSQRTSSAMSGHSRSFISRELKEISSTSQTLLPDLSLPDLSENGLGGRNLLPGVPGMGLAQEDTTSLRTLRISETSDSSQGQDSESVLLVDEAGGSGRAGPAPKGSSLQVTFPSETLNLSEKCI
T3 sequence (P43116 whole entry): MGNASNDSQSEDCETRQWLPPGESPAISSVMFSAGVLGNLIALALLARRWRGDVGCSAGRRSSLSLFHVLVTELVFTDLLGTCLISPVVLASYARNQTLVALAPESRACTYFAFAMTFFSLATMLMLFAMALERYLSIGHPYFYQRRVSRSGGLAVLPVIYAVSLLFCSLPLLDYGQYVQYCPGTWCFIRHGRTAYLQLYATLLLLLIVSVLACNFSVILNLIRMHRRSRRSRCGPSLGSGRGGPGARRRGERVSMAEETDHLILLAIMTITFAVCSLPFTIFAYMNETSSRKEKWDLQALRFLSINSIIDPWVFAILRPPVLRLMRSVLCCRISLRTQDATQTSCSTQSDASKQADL

On to `COc1ccc(COc2ccc(Cl)cc2Cn2nc(CCC(=O)O)cc2C)cc1` [Example 31, 3-[1-(5-Chloro-2-(4-methoxybenzyloxy)benzyl)-5-methyl-1H-pyrazol-3-yl]-propionic acid], for which the Kb in test [1] came out at 300 nM; in test [2] it was 200 nM; in test [3], 2500 nM; in test [4], 7400 nM; in test [5] it was 1200 nM; in test [6], 300 nM. This compound returned an antagonist equilibrium constant (Kb) in test [7] of 9 nM.

For `Cc1cc(CCC(=O)O)nn1Cc1cc(Cl)ccc1OCCCCC(C)C` [Example 36, 3-[1-(5-Chloro-2-(5-methylhexyloxy)benzyl)-5-methyl-1H-pyrazol-3-yl]-propionic acid], in test [1], the “EP1 (FLIPR) Kb” value is “Ag”. The Kb in test [2] worked out at 170 nM. Moreover, the “EP2 (FLIPR) Kb” value in test [3] is “PAg”. In addition, the “EP4 (FLIPR) Kb” value in test [4] was “Ag”. Besides, the “IP (FLIPR) Kb” value in test [5] is “Ag”. Besides, in test [6], the “DP1 (FLIPR) Kb” value was “PAg”. In addition, the “TP (FLIPR) Kb” value in test [7] was “Ag”.

`Cc1cc(CCC(=O)O)nn1Cc1cc(Cl)ccc1OCCC1CCCC1` [Example 39, 3-[1-(5-Chloro-2-(2-cyclopentylethoxy)benzyl)-5-methyl-1H-pyrazol-3-yl]-propionic acid]: the “EP1 (FLIPR) Kb” value in test [1] is reported as “PAg”. This compound also gave a Kb in test [2] of 300 nM. Further, the “EP2 (FLIPR) Kb” value in test [3] is on record as “PAg”. Moreover, the “EP4 (FLIPR) Kb” value in test [4] is “PAg”. The “IP (FLIPR) Kb” value in test [5] is reported as “PAg”. Further, in test [6], the “DP1 (FLIPR) Kb” value is “PAg”. Moreover, the “TP (FLIPR) Kb” value in test [7] was “PAg”.

Regarding `Cc1cc(CCCCC(=O)O)nn1Cc1cc(Cl)ccc1OCC1CCCC1` [Example 41, 5-[1-(5-Chloro-2-cyclopentylmethoxybenzyl)-5-methyl-1H-pyrazol-3-yl]-pentanoic acid], the Kb in test [1] came out at 350 nM; in test [2], 200 nM; in test [3], 8200 nM; in test [4], 1000 nM; in test [5], 5500 nM; in test [7], 30 nM. In addition, the “DP1 (FLIPR) Kb” value in test [6] is on record as “PAg”.

With `CCC(CC)COc1ccc(OC(F)(F)F)cc1Cn1nc(CCC(=O)O)cc1C` [Example 48, 3-[1-[2-(2-Ethyl-butoxy)-5-trifluoromethoxy-benzyl]-5-methyl-1H-pyrazol-3-yl]-propionic acid], the Kb in test [1] amounted to 80 nM; in test [2] it was 150 nM; in test [3] it was 3000 nM; in test [4], 400 nM; in test [5] it was 2300 nM; in test [7] it was 40 nM. Besides, in test [6], the “DP1 (FLIPR) Kb” value was “PAg”.

The Kb is the affinity of an antagonist, worked out from how it opposes an agonist. Low values mean higher antagonist affinity, high ones lower antagonist affinity.
